According to patent US10732173B2, “Use of aldehyde dehydrogenase as biomarker for beta-cell dysfunction and loss” (THE TRUSTEES OF COLUMBIA UNIVERSITY IN THE CITY OF NEW YORK, priority 2015, dated 2020):

System: MIN6 cells overexpressing ALDH1A3
Test: Glucose-stimulated insulin secretion in the presence of the ALDH inhibitor DEAB
Format: cell-based, mouse
Conditions: MIN6 cells overexpressing ALDH1A3, in the presence of DEAB (FIG. 12F)

Compound: CCN(CC)c1ccc(C=O)cc1 [DEAB, N,N-diethylaminobenzaldehyde]
- effect on insulin secretion: did not detect an effect
